Measurements published in patent US20090203697A1, “HETEROCYCLIC TYPE CINNAMIDE DERIVATIVE” (priority 2006, published 2009).
pIC50: −log10 of the molar value.

The compounds below were run on Aβ42 production (assay: Quantification of Aβ peptide in neuronal culture from rat fetus brain (Aβ ELISA)). Conditions: 72 h; rat primary neuronal culture (cerebral cortex, embryonic day 18 Wistar rats); medium collected three days after addition of the compound; Aβx-42 ELISA; read-out: Aβ42 production reducing effect IC50.
Type: cell-based
Method: Quantification of Aβ Peptide in Neuronal Culture from Rat Fetus Brain
(1) Rat Primary Neuronal Culture
Primary neuronal cultures were prepared from the cerebral cortex of embryonic day 18 Wistar rats (Charles River Japan, Yokohama, Japan). Specifically, the embryos were aseptically removed from pregnant rats under ether anesthesia. The brain was isolated from the embryo and immersed in an ice-cold L-15 medium (such as Invitrogen Corp. Cat #11415-064, Carlsbad, Calif., USA, or SIGMA L1518). The cerebral cortex was collected from the isolated brain under a stereoscopic microscope. The cerebral cortex fragments collected were enzymatically treated in an enzyme solution containing 0.25% trypsin (Invitrogen Corp. Cat #15050-065, Carlsbad, Calif., USA) and 0.01% DNase (Sigma D5025, St. Louis, Mo., USA) at 37° C. for 30 minutes to disperse the cells. Here, the enzymatic reaction was stopped by adding inactivated horse serum to the solution. The enzymatically treated solution was centrifuged at 1,500 rpm for five minutes to remove the supernatant. 5 to 10 ml of a medium was added to the resulting cell mass. Neurobasal medium (Invitrogen Corp. Cat #21103-049, Carlsbad, Calif., USA) supplemented with 2% B27 supplement (Invitrogen Corp. Cat #17504-044, Carlsbad, Calif., USA), 25 μM 2-mercaptoethanol (2-ME, WAKO Cat #139-06861, Osaka, Japan), 0.5 mM L-glutamine (Invitrogen Corp. Cat #25030-0817 Carlsbad, Calif., USA), and Antibiotics-Antimycotics (Invitrogen Corp. Cat #15240-062, Carlsbad, Calif., USA) was used as the medium (Neurobasal/B27/2-ME). However, the above Neurobasal medium not supplemented with 2-ME (Neurobasal/B27) was used for the assay. The cells were redispersed by mild pipetting of the cell mass to which the medium was added. The cell dispersion was filtered through a 40-μm nylon mesh (Cell Strainer, Cat #35-2340, Becton Dickinson Labware, Franklin Lakes, N.J., USA) to remove the remaining cell mass, and thus a neuronal cell suspension was obtained. The neuronal cell suspension was diluted with the medium and then plated in a volume of 100 μl/well at an initial cell density of 5×10^5 cells/cm^2 in a 96-well polystyrene culture plate pre-coated with poly-L or D-lysine (Falcon Cat #35-3075, Becton Dickinson Labware, Franklin Lakes, N.J., USA coated with poly-L-lysine using the method shown below, or BIOCOAT™ cell environments Poly-D-lysine cell ware 96-well plate, Cat #35-6461, Becton Dickinson Labware, Franklin Lakes, N.J., USA). Poly-L-lysine coating was carried out as follows. 100 μg/ml of a poly-L-lysine (SIGMA P2636, St. Louis, Mo., USA) solution was aseptically prepared with a 0.15 M borate buffer. (pH 8.5). […] of the solution was added to the 96-well polystyrene culture plate and incubated at room temperature for one or more hours or at 4° C. overnight or longer. The coated 96-well polystyrene culture plate was washed with sterile water four or more times, and then dried or rinsed with, for example, sterile PBS or medium, and used for cell plating. The plated cells were cultured in the culture plate at 37° C. in 5% CO2-95% air for one day. Then, the total amount of the medium was replaced with a fresh Neurobasal™/B27/2-ME medium, and then the cells were cultured for further three days.
The drug was added to the culture plate on Day 4 of culture as follows. The total amount of the medium was removed from the wells, and 180 μl/well of Neurobasal medium not containing 2-ME and containing 2% B-27 (Neurobasal/B27) was added thereto. A solution of the test compound in dimethyl sulfoxide (hereinafter abbreviated as DMSO) was diluted with Neurobasal/B27 to a concentration 10-fold higher than the final concentration. 20 μl/well of the dilution was added to and sufficiently mixed with the medium. The final DMSO concentration was 1% or less. Only DMSO was added to the control group.
The cells were cultured for three days after addition of the compound, and the total amount of the medium was collected. […]

Compound	pIC50
COc1cc(/C=C2\CCCN([C@@H](C)c3cc(F)c(F)c(F)c3)C2=O)ccc1-n1cnc(C)n1 [Example 6, (E)-3-[1-[3-methoxy-4-(3-methyl[1,2,4]triazol-1-yl)phenyl]methylidene]-1-[(S)-1-(3,4,5-trifluorophenyl)ethyl]piperidin-2-one]	6.49
COc1cc(/C=C2\O[C@@H](C)CN(C(C)(C)c3ccc(F)cc3)C2=O)ccc1-n1cnc(C)n1 [Example 17, (Z)-(6S)-4-[1-(4-fluorophenyl)-1-methylethyl]-2-[1-[3-methoxy-4-(3-methyl[1,2,4]triazol-1-yl)phenyl]methylidene]-6-methylmorpholin-3-one]	6.74
COc1cc(/C=C2\O[C@@H](C)CN([C@H](c3cc(F)c(F)c(F)c3)[C@@H](C)O)C2=O)ccc1-n1cnc(C)n1 [Example 18, (Z)-(6S)-4-[(1R,2R)-2-hydroxy-1-(3,4,5-trifluorophenyl)propyl]-2-[1-[3-methoxy-4-(3-methyl[1,2,4]triazol-1-yl)phenyl]methylidene]-6-methylmorpholin-3-one]	6.80
COc1cc(/C=C2\OC(C)(C)CN([C@H](c3cc(F)c(F)c(F)c3)[C@@H](C)O)C2=O)ccc1-n1cnc(C)n1 [Example 19, (Z)-4-[(1R,2R)-2-hydroxy-1-(3,4,5-trifluorophenyl)propyl]-2-[1-[3-methoxy-4-(3-methyl[1,2,4]triazol-1-yl)phenyl]methylidene]-6,6-dimethylmorpholin-3-one]	6.82
COc1cc(/C=C2\OCCN([C@H](c3cc(F)c(F)c(F)c3)[C@@H](C)O)C2=O)ccc1-n1cnc(C)n1 [Example 20, (Z)-4-[(1R,2R)-2-hydroxy-1-(3,4,5-trifluorophenyl)propyl]-2-[1-[3-methoxy-4-(3-methyl[1,2,4]triazol-1-yl)phenyl]methylidene]morpholin-3-one]	6.68
COc1cc(/C=C2\CCCN([C@H](c3cc(F)c(F)c(F)c3)[C@@H](C)O)C2=O)ccc1-n1cnc(C)n1 [Example 21, (E)-1-[(1R,2R)-2-hydroxy-1-(3,4,5-trifluorophenyl)propyl]-3-[1-[3-methoxy-4-(3-methyl[1,2,4]triazol-1-yl)phenyl]methylidene]piperidin-2-one]	7.22
COc1cc(/C=C2\CCCN([C@H](c3ccc(F)cc3)[C@@H](C)O)C2=O)ccc1-n1cnc(C)n1 [Example 22, (E)-1-[(1R,2R)-1-(4-fluorophenyl)-2-hydroxypropyl]-3-{1-[3-methoxy-4-(3-methyl[1,2,4]triazol-1-yl)phenyl]methylidene}piperidin-2-one]	7.30
COc1cc(/C=C2\OC(C)(C)CN([C@H](c3ccc(F)cc3)[C@@H](C)O)C2=O)ccc1-n1cnc(C)n1 [Example 23, (Z)-4-[(1R,2R)-1-(4-fluorophenyl)-2-hydroxypropyl]-2-[1-[3-methoxy-4-(3-methyl[1,2,4]triazol-1-yl)phenyl]methylidene]-6,6-dimethylmorpholin-3-one]	6.40
COc1cc(/C=C2\O[C@@H](C)CN([C@H](c3ccc(F)cc3)[C@@H](C)O)C2=O)ccc1-n1cnc(C)n1 [Example 24, (6S)-(Z)-4-[(1R,2R)-1-(4-fluorophenyl)-2-hydroxypropyl]-2-[1-[3-methoxy-4-(3-methyl[1,2,4]triazol-1-yl)phenyl]methylidene]-6-methylmorpholin-3-one]	6.54
COc1cc(/C=C2\CC[C@H]3CC[C@@H](c4ccc(F)c(F)c4)N3C2=O)ccc1-n1cnc(C)n1 [Example 26, (E)-(3S,8aS)-3-(3,4-difluorophenyl)-6-[3-methoxy-4-(3-methyl[1,2,4]triazol-1-yl)benzylidene]hexahydroindolizin-5-one]	6.42
COc1cc(/C=C2\CC(C)(C)CN([C@@H](C)c3ccc(F)cc3)C2=O)ccc1-n1cnc(C)n1 [Example 27, (E)-1-[(S)-1-(4-fluorophenyl)ethyl]-3-[1-[3-methoxy-4-(3-methyl[1,2,4]triazol-1-yl)phenyl]methylidene]-5,5-dimethylpiperidin-2-one]	6.57
COc1cc(/C=C2\CC[C@H]3CCC[C@@H](c4ccc(F)cc4)N3C2=O)ccc1-n1cnc(C)n1 [Example 28, (E)-(6S,9aR)-6-(4-fluorophenyl)-3-{1-[3-methoxy-4-(3-methyl[1,2,4]triazol-1-yl)phenyl]methylidene}octahydroquinolizin-4-one]	6.36
